Measurements as given in patent US12234223B2, “Phthalazinone compound, and preparation method therefor and medical use thereof” (SHANGHAI JEMINCARE PHARMACEUTICALS CO., LTD, priority 2020, dated 2025).

Key:
[1] = target: T1, Androgen receptor (Homo sapiens, UniProt P10275); experiment: Androgen receptor In-Cell-Western assay (AR degradation in VCaP cells); assay type: cell-based; conditions: 24 hours treatment; for DC50: concentration for half the maximum degradation degree of AR in VCaP cells; for Dmax: maximum degradation degree of AR in VCaP cells
T1 construct: Dmax: a maximum degradation degree of AR in VCaP cells; endogenous in cells; host or cells: VCaP cells
T1 sequence (P10275 1-920): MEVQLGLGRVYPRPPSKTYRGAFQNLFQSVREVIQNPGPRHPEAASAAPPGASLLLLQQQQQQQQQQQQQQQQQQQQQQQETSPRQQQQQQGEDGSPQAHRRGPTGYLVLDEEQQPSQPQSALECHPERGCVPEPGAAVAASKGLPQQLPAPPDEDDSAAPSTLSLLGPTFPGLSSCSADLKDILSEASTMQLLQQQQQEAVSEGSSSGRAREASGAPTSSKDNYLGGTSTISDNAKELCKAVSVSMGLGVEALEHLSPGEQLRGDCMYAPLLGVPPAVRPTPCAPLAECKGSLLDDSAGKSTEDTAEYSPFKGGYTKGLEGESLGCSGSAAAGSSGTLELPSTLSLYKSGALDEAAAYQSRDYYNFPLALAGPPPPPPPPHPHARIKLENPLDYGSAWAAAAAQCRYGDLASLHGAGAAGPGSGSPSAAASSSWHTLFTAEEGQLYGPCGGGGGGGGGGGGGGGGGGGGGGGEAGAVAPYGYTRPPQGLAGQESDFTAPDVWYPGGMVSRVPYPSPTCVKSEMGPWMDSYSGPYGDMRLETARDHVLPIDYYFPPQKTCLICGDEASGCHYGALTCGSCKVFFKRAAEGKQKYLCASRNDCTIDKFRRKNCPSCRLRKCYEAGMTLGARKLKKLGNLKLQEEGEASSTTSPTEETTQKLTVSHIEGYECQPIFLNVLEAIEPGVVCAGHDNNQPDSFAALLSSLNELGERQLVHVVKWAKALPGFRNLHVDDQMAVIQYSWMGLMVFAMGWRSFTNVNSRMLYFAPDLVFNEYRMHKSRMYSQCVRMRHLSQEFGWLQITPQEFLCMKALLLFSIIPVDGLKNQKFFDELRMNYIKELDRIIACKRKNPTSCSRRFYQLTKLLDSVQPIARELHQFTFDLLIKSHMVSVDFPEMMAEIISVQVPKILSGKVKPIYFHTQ
Method: This assay evaluated compound performance in VCap cells. An intracellular androgen receptor was assayed by In-Cell-Western according to the assay procedure described below.
In a 96-well cell culture plate (Corning 3599) pretreated by poly-D-Lysin, Vcap cells were seeded to a Vcap cell assay medium [phenol red containing DMEM (Gibco Cat. No.: 11995065); fetal bovine serum FBS (Gibco Cat. No.: 10099141C)] at a volume of 100 μL/well and a cell density of 50,000 cells/well. Cells were cultured for at least two days. • 1. First, cells were treated with a compound. The compound was subjected to a gradient dilution by using DMSO and a cell culture medium, so that DMSO contained in the cell culture plate was diluted to 0.5%: a polypropylene plate was used according to the following protocol: • (1) (i) A 200× stock solution plate was prepared in DMSO; (ii) a 10 mM stock solution was diluted at 1:4 (10 μL stock solution+40 μL DMSO=2000 uM) with DMSO to enter row 2; (iii) a 1:4 (10 μL protac+40 μL DMSO) gradient dilution was performed from row 2 to row 9, row 1 was reserved for a 2000 uM reference compound and row 10 was reserved for DMSO. (iv) There were 8 concentrations (the final concentrations on the 200× plate was 2000 uM, 400 uM, 80 uM, etc.) in total. (2) (i) A 3× stock solution was prepared in the medium; (ii) 3 μL of the 200× stock solution was transferred to 197 μL of the medium (by a 12-channel pipette, from row 1 to row 10), i.e. a 3× stock solution plate. (iii) Uniform mixing was performed for the stock solution plate. (3) (i) The medium of Vcap cells was replaced with a fresh medium, with the medium volume of 100 μL. (ii) The uniformly-mixed 3× stock solution was transferred to the cell culture plate (by the 12-channel pipette, 50 μL of the stock solution was transferred from row 1 to row 10). (iii) The cells were cultured for 24 hours. • 2. The expression level of the intracellular androgen receptor after compound treatment was detected, and assay was performed according to the following method. • (1) (i) An equal volume of 8% paraformaldehyde was added to the cell culture plate for cell fixation. A fixative solution in the cell plate was discarded, and the cell plate was washed three times with PBS. (ii) A Triton solution was prepared (the stock solution was diluted at 1:1000). The solution in the cell plate was discarded, and a volume of 200 μL of a Triton diluent was added to each well. (iii) A 2× blocking solution was prepared (a 10× blocking stock solution was diluted at 1:4). The solution in the cell plate was discarded, and a volume of 100 μL of the 2× blocking solution was added to each well. (iv) A primary antibody solution (Androgen receptor Rabbit mAb, Cell Signaling Technology Cat. No.: 5153; 1:1000 dilution) was prepared. The solution in the cell plate was discarded, a volume of 100 μL of a primary antibody diluent was added to each well, and incubation was performed at 4 degrees overnight. (v) The primary antibody solution was discarded, and the cell plate was washed with 1× Wash buffer (Wash buffer in the present application means a washing buffer solution). (vi) A secondary antibody solution (Goat anti Rabbit IgG (H+L) Secondary Antibody, HRP, Thermo Cat. No.: 31460; 1:5000 dilution) was prepared, and a volume of 100 μL of a secondary antibody diluent was added to each well for incubation. (vii) The secondary antibody solution in the cell plate was discarded, and the cell plate was washed with 1× Wash buffer. (viii) A TMB chromogenic solution (BD Cat. No.: 550534) was prepared, and a volume of 100 μL of the chromogenic solution was added to each well. (ix) A volume of 50 μL of a stop solution (BD Cat. No.: 550534) was added to each well. (x) Absorption values at OD 450 nm and 570 nm were read by EnVision. (2) (i) Normalized analysis was performed for the number of cells in each well. The solution in the cell plate was discarded, and the cell plate was washed three times with wash buffer. […]

[2] = system: VCaP cells; experiment: Inhibitory effect on VCaP cell proliferation (Cell Titer Glo); assay type: cell-based; conditions: Homo sapiens, 144 h; for IC50: VCaP cells, 5% FBS and 0.1 nM R1881, 6 days; for Emax: maximum degree of VCaP cell proliferation inhibition, 6 days
Method: A tumor cell line Vcap (ATCC Cat. No. CRL-2876) was respectively cultured with DMEM (Gibco Cat. No. 11965-092) medium containing 10% FBS (Gibco Cat. No. 10099-141C). During testing, Vcap cells were replaced with a DMEM culture fluid containing 5% FBS and 0.1 nM R1881 (Sigma Cat. No. R0908). The assay method was as follows:
Vcap cells were seeded to a 384-well plate (Perkin Elmer Cat. No. 6007460) at a cell density of 1200 cells/well and a volume of 20 μL/well; after the cells were incubated overnight in a carbon dioxide incubator (Thermo), the prepared compound solutions with different concentrations were added at a volume of 5 μL/well; meanwhile, a corresponding solvent was provided as a control; after the cells were continuously incubated in the incubator for 6 days, the cell plate and the contents thereof were equilibrated to room temperature; 25 μL of a Cell Titer Glor (Promega Cat. No. G7573) reagent was added to each well; after vibration and uniform mixing, incubation in the dark was performed for 10-30 minutes, and a signal value was detected with Envision microplate reader (PerkinElmer).
A percentage inhibition rate of compound-treated wells was calculated through solvent control wells on the plate, GraphPad prism was used to fit the percentage inhibition rate data corresponding to different concentrations, and IC50 value was calculated by a 4-parameter nonlinear logistic formula.
Emax: a maximum degree of VCaP cell proliferation inhibition. IC50: a compound concentration required to achieve half the maximum degree of VCaP cell proliferation inhibition.

Compound	DC50 [1] [nM]	Dmax [1] [%]	IC50 [2] [nM]	Emax [2] [%]
N#Cc1ccc(O[C@H]2CC[C@H](NC(=O)c3cnc(N4CCC(CN5CCN(c6ccc7c(=O)n(C8CCC(=O)NC8=O)ncc7c6)CC5)CC4)nc3)CC2)cc1Cl (some centres unmarked) [Compound 14]	11	91	20	61
CC1(C)[C@H](NC(=O)c2ccc(N3CCC(CN4CCN(c5ccc6c(=O)n([C@@H]7CCC(=O)NC7=O)ncc6c5)CC4)CC3)cc2)C(C)(C)[C@H]1Oc1ccc(C#N)c(Cl)c1 [Compound 28B]	7.2	101	33	71
